Reference: PubChem BioAssay (NCI)
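Grown in 96-well plates, cells were treated for 48 hours with each compound at five concentrations. Insufficient inhibition: endpoint recorded as highest concentration tested. GI50: concentration for 50% inhibition of growth. TGI marks complete inhibition of growth.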

How the values were obtained:
Assay in all cases: NCI tumour cell line growth inhibition, 48 h
IGROV1 ovarian = system: IGROV1 ovarian
NCI-H460 lung = system: NCI-H460 lung
PC-3 prostate = system: PC-3 prostate
SK-OV-3 ovarian = system: SK-OV-3 ovarian
MDA-MB-231 breast = system: MDA-MB-231 breast
MDA-MB-435 = system: MDA-MB-435
UACC-257 melanoma = system: UACC-257 melanoma
SNB-19 CNS = system: SNB-19 CNS
T-47D breast = system: T-47D breast
HT29 colon = system: HT29 colon
ACHN renal = system: ACHN renal
SW-620 colon = system: SW-620 colon
SNB-75 CNS = system: SNB-75 CNS
MOLT-4 leukemia = system: MOLT-4 leukemia
OVCAR-8 ovarian = system: OVCAR-8 ovarian
SK-MEL-5 melanoma = system: SK-MEL-5 melanoma
NCI/ADR-RES ovarian = system: NCI/ADR-RES ovarian
HCT-116 colon = system: HCT-116 colon
CAKI-1 renal = system: CAKI-1 renal
COLO 205 colon = system: COLO 205 colon
SK-MEL-2 melanoma = system: SK-MEL-2 melanoma
UACC-62 melanoma = system: UACC-62 melanoma
OVCAR-5 ovarian = system: OVCAR-5 ovarian
SF-539 CNS = system: SF-539 CNS
TK-10 renal = system: TK-10 renal
HCC-2998 colon = system: HCC-2998 colon
MCF7 breast = system: MCF7 breast

## O=C(Cc1csc2nc(-c3ccc(Br)cc3)cn12)N/N=C/c1ccc(O)cc1
IGROV1 ovarian
  GI50: 10.6 µM
  TGI: 39.7 µM
NCI-H460 lung
  GI50: 56.9 µM
  TGI: > 100 µM
PC-3 prostate
  TGI: 23.7 µM
SK-OV-3 ovarian
  GI50: 52.5 µM
  TGI: > 100 µM
MDA-MB-231 breast
  GI50: 10.4 µM
  TGI: 43.2 µM
MDA-MB-435
  GI50: 6.27 µM
  TGI: 24.3 µM
UACC-257 melanoma
  GI50: 1.52 µM
  TGI: 7.72 µM
SNB-19 CNS
  GI50: 57.5 µM
  TGI: > 100 µM
T-47D breast
  GI50: 31.8 µM
  TGI: > 100 µM
HT29 colon
  GI50: 49.9 µM
  TGI: > 100 µM
ACHN renal
  GI50: 14.7 µM
  TGI: 51 µM
SW-620 colon
  GI50: 31.5 µM
  TGI: > 100 µM
SNB-75 CNS
  GI50: > 100 µM
  TGI: > 100 µM
MOLT-4 leukemia
  GI50: 4.21 µM
OVCAR-8 ovarian
  GI50: 7.07 µM
  TGI: 25.9 µM
SK-MEL-5 melanoma
  GI50: 7.14 µM
  TGI: 22.2 µM
NCI/ADR-RES ovarian
  GI50: 21.2 µM
  TGI: 61.1 µM
HCT-116 colon
  GI50: 10.5 µM
  TGI: 24.2 µM
CAKI-1 renal
  GI50: 14.9 µM
  TGI: 49.3 µM
COLO 205 colon
  GI50: 43.3 µM
  TGI: > 100 µM
SK-MEL-2 melanoma
  GI50: 26.1 µM
  TGI: 95.9 µM
UACC-62 melanoma
  GI50: 9.11 µM
  TGI: 23.5 µM
OVCAR-5 ovarian
  GI50: 27.6 µM
  TGI: > 100 µM
SF-539 CNS
  GI50: 18.4 µM
  TGI: 46.5 µM
TK-10 renal
  GI50: 9.79 µM
  TGI: 33.4 µM
HCC-2998 colon
  GI50: 14.6 µM
  TGI: 29.4 µM
MCF7 breast
  GI50: 62.7 µM
